Patent US20140357666A1, “COMPOUNDS FOR INHIBITING THE INTERACTION OF BCL2 WITH BINDING PARTNERS” (NOVARTIS AG, priority 2011, published 2014)

Tests used:
[1] = biological target: BCL-2 binding to biotinylated BAD peptide (Homo sapiens, UniProt P10415); test: SPR (Biacore) solution inhibition assay, BCL-2 binding to BAD peptide surface; conditions: read-out: BCL2_SPR IC50 BAD
Excerpt: (§1) The present method includes utility of a Surface plasmon resonance (SPR)-based biosensor (Biacore™, GE Healthcare, Uppsala, Sweden) to characterize BCL-2 inhibitors.
(§2) Biacore™ utilizes the phenomenon of surface plasmon resonance (SPR) to detect and measure binding interactions. In a typical Biacore experiment, one of the interacting molecules (ligand) is immobilized on a flexible dextran matrix while the interacting partner (analyte) is allowed to flow across that surface. A binding interaction results in an increase in mass on the sensor surface and a corresponding direct change in the refractive index of the medium in the vicinity of the sensor surface. Changes in refractive index or signal are recorded in resonance units (R.U.) Signal changes due to association and dissociation of complexes are monitored in a non-invasive manner, continuously and in real-time, the results of which are reported in the form of a sensorgram.
(§3) The SPR assay is configured to examine solution inhibition of BCL-2 binding to peptide derivatized sensor surfaces to generate IC50 values as a measure of inhibitor potency.
(§4) Biacore™ A100 (GE Healthcare, Uppsala, Sweden) was used to conduct all experiments reported herein. Sensor surface preparation and all interaction analyses experiments were performed at 25° C. Reagents were purchased from GE Healthcare. Running buffer containing 10 mM Hepes, pH7.4, 150 mM sodium chloride, 1.25 mM Dithiothreitol, 3% Dimethyl sulfoxide and 0.05% polysorbate 20 were utilized throughout all analyses.
(§5) Biotinylated BAK, BAD and NOXA peptides were diluted to 10 nM in running buffer and captured onto a sensor surface pre-derivatized with streptavidin (sensor chip SA) to peptide surface densities in the range 50-100 R.U. Peptide captured surfaces were blocked with 500 μM PEO2-Biotin.
(§6) Interaction analyses were performed by first equilibrating each sample within a 6 point three fold compound dilution series in the range 16 μM to […] with 56 nM BCL-2 for one hour during instrument start-up procedures. Protein compound mixtures were then injected over each peptide surface in parallel for 60 seconds at a flow-rate of 30 μL/min. 56 nM BCL-2 control samples were also prepared and run at regular intervals during the assay. Surface regeneration was performed at the end of each analysis cycle by two 30 second injections of 10 mM Glycine, pH 2.5, 1M Sodium Chloride, 0.05% polysorbate 20. Samples and control compound samples were run in duplicate and controls are also run at regular intervals during the assay to monitor surface and assay performance.
(§7) Data analyses are carried out using Biacore™ A100 evaluation software v1.1 to validate assay quality. Binding level report points were used relative to BCL-2 control samples to calculate % inhibition values for each compound protein mixture. […] The range of data shown in table 1 represents the high and low IC50 values obtained from multiple experiments.

[2] = biological target: BCL-2 binding to biotinylated BAK peptide (Homo sapiens, UniProt P10415); test: SPR (Biacore) solution inhibition assay, BCL-2 binding to BAK peptide surface; conditions: read-out: BCL2_SPR IC50 BAK
BCL-2 binding to biotinylated BAK peptide, sequence (P10415 whole entry): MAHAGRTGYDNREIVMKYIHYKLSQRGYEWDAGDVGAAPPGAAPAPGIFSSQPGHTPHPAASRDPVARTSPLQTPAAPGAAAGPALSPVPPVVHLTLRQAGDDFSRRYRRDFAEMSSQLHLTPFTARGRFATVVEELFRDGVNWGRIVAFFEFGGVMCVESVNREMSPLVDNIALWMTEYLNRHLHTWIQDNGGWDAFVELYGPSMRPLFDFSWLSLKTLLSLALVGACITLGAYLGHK
Excerpt: as §1, §2, §3, §4, §5, §6, §7

BCL-2 binding to biotinylated BAD peptide, sequence (P10415 whole entry): as above

Structure (SMILES)	IC50 [1]	IC50 [2]
CCCCN(CCCC)C(=O)c1cc(C)n(-c2ccc(NC(=O)NCC)cc2C(=O)N2Cc3ccccc3C[C@H]2CO)n1 [Example 2]	582 to 618 nM	404 to 430 nM
CCCCN(CCCC)C(=O)c1cc(C)n(-c2ccc(NC(=O)Nc3cccc(OC)c3)cc2C(=O)N2Cc3ccccc3C[C@H]2CO)n1 [Example 3]	894 to 1020 nM	806 to 893 nM
CCCCN(CCCC)C(=O)c1cc(C)n(-c2ccc(NC(=O)N[C@H](C)c3ccccc3)cc2C(=O)N2Cc3ccccc3C[C@H]2CO)n1 [Example 9]	334 to 357 nM	250 to 273 nM
CCCCN(CCCC)C(=O)c1cc(C)n(-c2ccc(NC(=O)Nc3ccc(C)c(C)c3)cc2C(=O)N2Cc3ccccc3C[C@H]2CO)n1 [Example 10]	731 to 784 nM	624 to 639 nM
CCCCN(CCCC)C(=O)c1cc(C)n(-c2ccc(NC(=O)Nc3ccc(F)c(C(F)(F)F)c3)cc2C(=O)N2Cc3ccccc3C[C@H]2CO)n1 [Example 11]	3020 to 3220 nM	2710 to 2770 nM
CCCCN(CCCC)C(=O)c1cc(C)n(-c2ccc(NC(=O)Nc3ccccc3Oc3ccccc3)cc2C(=O)N2Cc3ccccc3C[C@H]2CO)n1 [Example 12]	> 16000 nM	> 16000 nM
CCCCN(CCCC)C(=O)c1cc(C)n(-c2ccc(NC(=O)N[C@@H]3C[C@H]3c3ccccc3)cc2C(=O)N2Cc3ccccc3C[C@H]2CO)n1 [Example 13]	> 16000 nM	8770 to 9190 nM
CCCCN(CCCC)C(=O)c1cc(C)n(-c2ccc(NC(=O)NC(C)C)cc2C(=O)N2Cc3ccccc3C[C@H]2CO)n1 [Example 14]	494 to 509 nM	343 to 356 nM
CCCCN(CCCC)C(=O)c1cc(C)n(-c2ccc(NC(=O)Nc3ccc(SC)cc3)cc2C(=O)N2Cc3ccccc3C[C@H]2CO)n1 [Example 16]	786 to 983 nM	812 to 962 nM
CCCCN(CCCC)C(=O)c1cc(C)n(-c2ccc(NC(=O)Nc3ccc(-c4ccccc4)cc3)cc2C(=O)N2Cc3ccccc3C[C@H]2CO)n1 [Example 18]	1730 to 1760 nM	1950 to 2010 nM
CCCCN(CCCC)C(=O)c1cc(C)n(-c2ccc(NC(=O)N[C@H](C)c3ccc(OC)cc3)cc2C(=O)N2Cc3ccccc3C[C@H]2CO)n1 [Example 19]	725 to 805 nM	736 to 857 nM
CCCCN(CCCC)C(=O)c1cc(C)n(-c2ccc(NC(=O)Nc3ccccc3OC)cc2C(=O)N2Cc3ccccc3C[C@H]2CO)n1 [Example 21]	2640 to 3450 nM	2740 to 3150 nM
CCCCN(CCCC)C(=O)c1cc(C)n(-c2ccc(NC(=O)Nc3ccc(C#N)cc3)cc2C(=O)N2Cc3ccccc3C[C@H]2CO)n1 [Example 22]	1840 to 2170 nM	1570 to 1730 nM
CCCCN(CCCC)C(=O)c1cc(C)n(-c2ccc(NC(=O)Nc3cccs3)cc2C(=O)N2Cc3ccccc3C[C@H]2CO)n1 [Example 26]	2090 to 2440 nM	1660 to 1700 nM
CCCCN(CCCC)C(=O)c1cc(C)n(-c2ccc(NC(=O)Nc3ccc(Cl)cc3C)cc2C(=O)N2Cc3ccccc3C[C@H]2CO)n1 [Example 27]	900 to 962 nM	846 to 861 nM
CCCCN(CCCC)C(=O)c1cc(C)n(-c2ccc(NC(=O)Nc3ccccc3OCC)cc2C(=O)N2Cc3ccccc3C[C@H]2CO)n1 [Example 28]	508 to 697 nM	551 to 618 nM
CCCCN(CCCC)C(=O)c1cc(C)n(-c2ccc(NC(=O)Nc3ccc4ccccc4c3)cc2C(=O)N2Cc3ccccc3C[C@H]2CO)n1 [Example 29]	2430 to 2560 nM	1840 to 2440 nM
CCCCN(CCCC)C(=O)c1cc(C)n(-c2ccc(NC(=O)Nc3cccc(Cc4ccccc4)c3)cc2C(=O)N2Cc3ccccc3C[C@H]2CO)n1 [Example 31]	2320 to 2500 nM	1540 to 1580 nM
CCCCN(CCCC)C(=O)c1cc(C)n(-c2ccc(NC(=O)NC3CCCC3)cc2C(=O)N2Cc3ccccc3C[C@H]2CO)n1 [Example 32]	445 to 463 nM	279 to 284 nM
CCCCN(CCCC)C(=O)c1cc(C)n(-c2ccc(NC(=O)Nc3cccc(Cl)c3C)cc2C(=O)N2Cc3ccccc3C[C@H]2CO)n1 [Example 33]	440 to 448 nM	337 to 378 nM
CCCCN(CCCC)C(=O)c1cc(C)n(-c2ccc(NC(=O)Nc3c(C)cccc3CC)cc2C(=O)N2Cc3ccccc3C[C@H]2CO)n1 [Example 34]	618 to 713 nM	631 to 667 nM
CCCCN(CCCC)C(=O)c1cc(C)n(-c2ccc(NC(=O)Nc3ccc(F)c(F)c3)cc2C(=O)N2Cc3ccccc3C[C@H]2CO)n1 [Example 35]	3200 to 3930 nM	3010 to 3070 nM
CCCCN(CCCC)C(=O)c1cc(C)n(-c2ccc(NC(=O)Nc3cc(Cl)cc(Cl)c3)cc2C(=O)N2Cc3ccccc3C[C@H]2CO)n1 [Example 36]	> 16000 nM	> 16000 nM
CCCCN(CCCC)C(=O)c1cc(C)n(-c2ccc(NC(=O)Nc3cc(F)cc(F)c3)cc2C(=O)N2Cc3ccccc3C[C@H]2CO)n1 [Example 37]	4060 to 4280 nM	3760 to 3780 nM
CCCCN(CCCC)C(=O)c1cc(C)n(-c2ccc(NC(=O)Nc3ccc(OC)c(OC)c3)cc2C(=O)N2Cc3ccccc3C[C@H]2CO)n1 [Example 38]	524 to 614 nM	384 to 417 nM
CCCCN(CCCC)C(=O)c1cc(C)n(-c2ccc(NC(=O)Nc3ccccc3Cc3ccccc3)cc2C(=O)N2Cc3ccccc3C[C@H]2CO)n1 [Example 39]	766 to 845 nM	667 to 676 nM
CCCCN(CCCC)C(=O)c1cc(C)n(-c2ccc(NC(=O)Nc3ccccc3OC(F)(F)F)cc2C(=O)N2Cc3ccccc3C[C@H]2CO)n1 [Example 41]	923 to 969 nM	888 to 970 nM

Now those with a lower IC50 [1], led by results:

IC50 [1]	IC50 [2]	Structure (SMILES)
52 to 65.5 nM	45.2 to 54.3 nM	CCCCN(CCCC)C(=O)c1cc(C)n(-c2ccc(NC(=O)NCc3ccccc3)cc2C(=O)N2Cc3ccccc3C[C@H]2CO)n1 [Example 1, (S)-1-(4-(3-benzylureido)-2-(3-(hydroxymethyl)-1,2,3,4-tetrahydroisoquinoline-2-carbonyl)phenyl)-N,N-dibutyl-5-methyl-1H-pyrazole-3-carboxamide]
86.3 to 91.3 nM	73.1 to 75.7 nM	CCCCN(CCCC)C(=O)c1cc(C)n(-c2ccc(NC(=O)N[C@@H](C)c3ccccc3)cc2C(=O)N2Cc3ccccc3C[C@H]2CO)n1 [Example 4]
72.3 to 78.3 nM	73.2 to 77.1 nM	CCCCN(CCCC)C(=O)c1cc(C)n(-c2ccc(NC(=O)NCc3ccccc3OC)cc2C(=O)N2Cc3ccccc3C[C@H]2CO)n1 [Example 5]
108 to 117 nM	83.6 to 89.2 nM	CCCCN(CCCC)C(=O)c1cc(C)n(-c2ccc(NC(=O)NCc3ccc(OC)cc3)cc2C(=O)N2Cc3ccccc3C[C@H]2CO)n1 [Example 6]
103 to 107 nM	86.3 to 94.2 nM	CCCCN(CCCC)C(=O)c1cc(C)n(-c2ccc(NC(=O)NCc3ccccc3Cl)cc2C(=O)N2Cc3ccccc3C[C@H]2CO)n1 [Example 7]
156 to 165 nM	140 to 149 nM	CCCCN(CCCC)C(=O)c1cc(C)n(-c2ccc(NC(=O)NCc3ccc(Cl)cc3)cc2C(=O)N2Cc3ccccc3C[C@H]2CO)n1 [Example 8]
150 to 157 nM		CCCCN(CCCC)C(=O)c1cc(C)n(-c2ccc(NC(=O)NCCc3ccccc3)cc2C(=O)N2Cc3ccccc3C[C@H]2CO)n1 [Example 15]
89 to 108 nM	85.1 to 85.9 nM	CCCCN(CCCC)C(=O)c1cc(C)n(-c2ccc(NC(=O)NCc3cccc(C)c3)cc2C(=O)N2Cc3ccccc3C[C@H]2CO)n1 [Example 17]
71.1 to 75.4 nM	69 to 80.5 nM	CCCCN(CCCC)C(=O)c1cc(C)n(-c2ccc(NC(=O)N[C@@H](C)c3ccc(OC)cc3)cc2C(=O)N2Cc3ccccc3C[C@H]2CO)n1 [Example 20]
45.5 to 46.7 nM	37 to 41.7 nM	CCCCN(CCCC)C(=O)c1cc(C)n(-c2ccc(NC(=O)N[C@@H](C)c3cccc(OC)c3)cc2C(=O)N2Cc3ccccc3C[C@H]2CO)n1 [Example 23]
232 to 255 nM	143 to 177 nM	CCCCN(CCCC)C(=O)c1cc(C)n(-c2ccc(NC(=O)Nc3ccc(OC)cc3C)cc2C(=O)N2Cc3ccccc3C[C@H]2CO)n1 [Example 25]
210 to 238 nM	192 to 205 nM	CCCCN(CCCC)C(=O)c1cc(C)n(-c2ccc(NC(=O)Nc3c(C)cccc3C)cc2C(=O)N2Cc3ccccc3C[C@H]2CO)n1 [Example 30]
204 to 303 nM	197 to 224 nM	CCCCN(CCCC)C(=O)c1cc(C)n(-c2ccc(NC(=O)Nc3c(Cl)cccc3Cl)cc2C(=O)N2Cc3ccccc3C[C@H]2CO)n1 [Example 40]
